Read-outs that look alike come from different tables or passages of the source.
Assays:
[1] = HPLC stability of bendamustine in TBA 20% (v/v) with and without mannitol over 24 hours; format: physicochemical
Text: FIGS. 3 and 4 show the amount of degradation of bendamustine as measured by HP1 and dimer formation quantified by HPLC (as described herein). HP1 and dimer formation increased as the amount of alcohol concentration decreased regardless of the alcohol. This increase in impurities occurred with an anticipated time dependence (see Tables 3-9).

[2] = reconstituted with 40 mL Sterile Water for Injection, cited from earlier work
[3] = for Bendamustine solubility: 5° C.
Protocol: (§1) Samples were then refrigerated at 5° C. and inspected after 0, 3, 6 and 24 hours for particulates and/or precipitates.

physchem = conditions: 5 °C
Protocol: as §1

[4] = 10% (v/v) methanol in water with 25.5 mg/mL mannitol, aqueous with cosolvent or surfactant or cyclodextrin
[5] = alcohol/water solution with mannitol 25.5 mg/mL, aqueous with cosolvent or surfactant or cyclodextrin
[6] = alcohol/water solution with mannitol 25.5 mg/mL, aqueous with cosolvent or surfactant or cyclodextrin, thermodynamic from solid
[7] = alcohol/water solution with mannitol, aqueous with cosolvent or surfactant or cyclodextrin
[8] = alcohol/water solution with mannitol, aqueous with cosolvent or surfactant or cyclodextrin, thermodynamic from solid
[9] = alcohol/water solution with mannitol, water, thermodynamic from solid
[10] = water with mannitol 25.5 mg/mL, water, thermodynamic from solid

## Cl.Cn1c(CCCC(=O)O)nc2cc(N(CCCl)CCCl)ccc21 [bendamustine, 4-{5-[Bis(2-chloroethyl)amino]-1-methyl-2-benzimidazolyl}butyric acid]
[1]; TBA 20% (v/v) with Mannitol, 0 hours, reverse phase HPLC
  Purity (% Area): 99.59 % Area
[1]; TBA 20% (v/v) with Mannitol, 24 hours @ 5° C., reverse phase HPLC
  Purity (% Area): 99.35 % Area
[1]; TBA 20% (v/v) without Mannitol, 0 hours, normal phase HPLC
  Purity (% Area): 100.0 % Area
[1]; TBA 20% (v/v) without Mannitol, 24 hours @ 5° C., normal phase HPLC
  Purity (% Area): 98.80 % Area
[2]; room temperature storage
  stable period after reconstitution: 7 h
[2]; storage at 2-8° C.
  stable period after reconstitution: 140 h
[3]; 0% (Water Only), 6 Hours
  Bendamustine solubility: Precipitate
[3]; 0% (Water Only), 24 Hours
  Bendamustine solubility: Precipitate
[3]; 15 mg/mL bendamustine, 5% and 10% ethanol and TBA without mannitol, over 24 hours
  precipitation: did not precipitate
[3]; 1.9% Ethanol (v/v), 6 Hours
  Bendamustine solubility: Precipitate
[3]; 1.9% Ethanol (v/v), 24 Hours
  Bendamustine solubility: Precipitate
[3]; 5% Ethanol (v/v), 6 Hours
  Bendamustine solubility: Precipitate
[3]; 5% Ethanol (v/v), 24 Hours
  Bendamustine solubility: Precipitate
[3]; 5% Iso-propanol (v/v), 3 Hours
  Bendamustine solubility: Precipitate
[3]; 5% Iso-propanol (v/v), 6 Hours
  Bendamustine solubility: Precipitate
[3]; 5% Iso-propanol (v/v), 24 Hours
  Bendamustine solubility: Precipitate
[3]; 5% Methanol (v/v), 6 Hours
  Bendamustine solubility: Precipitate
[3]; 5% Methanol (v/v), 24 Hours
  Bendamustine solubility: Precipitate
[3]; 5% Tert-Butanol (v/v), 24 Hours
  Bendamustine solubility: Precipitate
[3]; 5% n-Propanol (v/v), 24 Hours
  Bendamustine solubility: Precipitate
[3]; 10% Ethanol (v/v), 24 Hours
  Bendamustine solubility: Precipitate
[3]; 10% Methanol (v/v), 24 Hours
  Bendamustine solubility: Precipitate
[3]; 10% Tert-Butanol (v/v), 24 Hours
  Bendamustine solubility: Precipitate
[3]; 20% Methanol (v/v), 24 Hours
  Bendamustine solubility: Precipitate
[3]; 20% n-Butanol (v/v), 3 Hours
  Bendamustine solubility: 2 layers
[3]; 20% n-Butanol (v/v), 6 Hours
  Bendamustine solubility: 2 layers
[3]; 20% n-Butanol (v/v), 24 Hours
  Bendamustine solubility: 2 layers
[3]; 20% n-Butanol (v/v), Zero Time
  Bendamustine solubility: 2 layers
[3]; 30% n-Butanol (v/v), 3 Hours
  Bendamustine solubility: 2 layers
[3]; 30% n-Butanol (v/v), 6 Hours
  Bendamustine solubility: 2 layers
[3]; 30% n-Butanol (v/v), 24 Hours
  Bendamustine solubility: 2 layers
[3]; 30% n-Butanol (v/v), Zero Time
  Bendamustine solubility: 2 layers
20% (v/v) TBA, 5° C.
  saturation limit: 17.2 mg/mL
30% TBA/water, 0° C.
  concentration of saturated solution: 18000 µg/mL
physchem; [4]
  solubility at 0 h: > 15 mg/mL
  solubility at 3 h: > 15 mg/mL
  solubility at 6 h: > 15 mg/mL
physchem; [5]
  solubility at 0 h: > 15 mg/mL
  solubility at 3 h: > 15 mg/mL
  solubility at 6 h: > 15 mg/mL
  solubility at 24 h: > 15 mg/mL
physchem; [6]
  solubility at 0 h: > 15 mg/mL
  solubility at 3 h: > 15 mg/mL
  solubility at 6 h: > 15 mg/mL
  solubility at 24 h: > 15 mg/mL
physchem; [7]
  solubility at 0 h: > 15 mg/mL
  solubility at 3 h: > 15 mg/mL
  solubility at 6 h: > 15 mg/mL
  solubility at 24 h: > 15 mg/mL
physchem; [8]
  solubility at 0 h: > 15 mg/mL
  solubility at 3 h: > 15 mg/mL
  solubility at 6 h: > 15 mg/mL
  solubility at 24 h: > 15 mg/mL
physchem; [9]
  solubility at 0 h: > 15 mg/mL
  solubility at 3 h: > 15 mg/mL
physchem; [10]
  solubility at 0 h: > 15 mg/mL
  solubility at 3 h: > 15 mg/mL
